Values joined by “and” are separate entries in the source; they are usually repeats but may differ in a detail not shown here. Identical values can stand only once. Like-named read-outs stand apart in the source and are kept apart here. Marks after values point to notes of the source that are not given here.
What was measured:
[1] = target: hCB2 (Homo sapiens, UniProt P34972); assay: Tango β-arrestin-2 recruitment, HTLA cells, CB2R; type: cell-based; design: expressed in transfected cells; host or cells: HEK293 cells stably expressing human CB2R (Laboratory of Ken Mackie); conditions: hCB2; for EC50: read-out: Tango ß-arrestin recruitment EC50; for Emax: HTLA, read-out: Tango ß-arrestin recruitment Emax
Description: The Tango β-arrestin-2 recruitment assays were performed as described[83]. In brief, HTLA cells (a gift from the laboratory of R. Axel) were transiently transfected with human CB1R or CB2R Tango DNA construct overnight in DMEM supplemented with 10 % FBS, 100 µg ml−1 streptomycin and 100 U ml−1 penicillin. The transfected cells were then plated into poly-L-lysine-coated 384-well white clear-bottom cell culture plates in DMEM containing 1% dialysed FBS at a density of 10,000–15,000 cells per well. After incubation for 6 h, the plates were added with drug solutions prepared in DMEM containing 1% dialysed FBS for overnight incubation. On the day of assay, medium and drug solutions were removed and 20 µl per well of BrightGlo reagent (Promega) was added. The plates were further incubated for 20 min at room temperature and counted using the Wallac TriLux Microbeta counter (PerkinElmer). The results were analysed using GraphPad Prism 9. Each experiment was performed in triplicate and functional IC50 values were determined from the mean of three independent experiments.

[2] = Dynamic light scattering, colloidal aggregation; type: physicochemical; conditions: Log[compound, replicates, sheet FigS2b
Description: Samples were prepared as 8-point half-log dilutions in filtered 50 mM KPi buffer, pH 7.0 with final DMSO concentration at 1% (v/v). Colloidal particle formation was measured using DynaPro Plate Reader II (Wyatt Technologies). All compounds were screened in triplicate.

[3] = system: Malate dehydrogenase; assay: Enzyme inhibition counter-screen, MDH; type: biochemical; conditions: for MDH activity (DMSO = 100), replicate means: Rep 1-3 mean, sheet FigureS2c; for MDH inhibition: Log[7019], sheet FigS2d
Description: (§1) Enzyme inhibition assays to test for colloidal inhibition were performed at room temperature using CLARIOstar Plate Reader (BMG Labtech). Samples were prepared in 50 mM KPi buffer, pH 7.0 with final DMSO concentration at 1% (v/v). Compounds were incubated with 2 nM AmpC β-lactamase (AmpC) or Malate dehydrogenase (MDH) for 5 min. AmpC reactions were initiated by the addition of 50 μM CENTA chromogenic substrate (219475, Calbiochem). […] MDH reactions were initiated by the addition of 200 μM nicotinamide adenine dinucleotide (NADH) (54839, Sigma Aldrich) and 200 μM oxaloacetic acid (324427, Sigma Aldrich). The change in absorbance was monitored at 340 nm for 60 sec. Initial rates were divided by the DMSO control rate to determine % enzyme activity. Each compound was screened at 100μM in triplicate for three independent experiments, if enzyme inhibition greater than 30% was observed, 8-point half-log concentrations were performed in triplicate for three independent experiments. Data was analyzed using GraphPad Prism 9.1.

[4] = target: AmpC β-lactamase (Escherichia coli, UniProt P00811); type: biochemical; conditions: for AMPC activity (DMSO = 100), replicate means: Rep 1-3 mean, sheet FigureS2c; for AmpC inhibition: Log[7019], sheet FigS2d
Description: as §1, with “[…].” for “Each compound was screened at 100μM in triplicate for three independent experiments, if enzyme inhibition greater than 30% was observed, 8-point half-log concentrations were performed in triplicate for three independent experiments.”

[5] = target: panel of 320 non-olfactory GPCRs (Homo sapiens, UniProt Q6NV75); type: cell-based
[6] = target: panel of 320 non-olfactory GPCRs (Homo sapiens, UniProt P50052); type: cell-based
[7] = target: panel of 320 non-olfactory GPCRs (Homo sapiens, UniProt Q8TDV2); type: cell-based
[8] = target: panel of 320 non-olfactory GPCRs (Homo sapiens, UniProt Q86Y34); type: cell-based
[9] = target: panel of 320 non-olfactory GPCRs (Homo sapiens, UniProt Q9NYM4); type: cell-based
[10] = target: panel of 320 non-olfactory GPCRs (Homo sapiens, UniProt Q13324); type: cell-based
[11] = target: panel of 320 non-olfactory GPCRs (Homo sapiens, UniProt Q8N6U8); type: cell-based
[12] = target: panel of 320 non-olfactory GPCRs (Homo sapiens, UniProt P21918); type: cell-based
[13] = target: panel of 320 non-olfactory GPCRs (Homo sapiens, UniProt P08173); type: cell-based
[14] = target: panel of 320 non-olfactory GPCRs (Homo sapiens, UniProt P30542); type: cell-based
[15] = target: panel of 320 non-olfactory GPCRs (Homo sapiens, UniProt Q99527); type: cell-based
[16] = target: panel of 320 non-olfactory GPCRs (Homo sapiens, UniProt P30550); type: cell-based
[17] = target: panel of 320 non-olfactory GPCRs (Homo sapiens, UniProt Q9HBW0); type: cell-based
[18] = target: panel of 320 non-olfactory GPCRs (Homo sapiens, UniProt P25089); type: cell-based
[19] = target: panel of 320 non-olfactory GPCRs (Homo sapiens, UniProt P35368); type: cell-based
[20] = target: panel of 320 non-olfactory GPCRs (Homo sapiens, UniProt P25106); type: cell-based
[21] = target: panel of 320 non-olfactory GPCRs (Homo sapiens, UniProt Q9NQS5); type: cell-based
[22] = target: panel of 320 non-olfactory GPCRs (Homo sapiens, UniProt Q16602); type: cell-based
[23] = target: panel of 320 non-olfactory GPCRs (Homo sapiens, UniProt Q9HBW9); type: cell-based
[24] = target: panel of 320 non-olfactory GPCRs (Homo sapiens, UniProt Q99679); type: cell-based
Chain of panel of 320 non-olfactory GPCRs (Homo sapiens, UniProt Q99679) (Q99679 whole entry): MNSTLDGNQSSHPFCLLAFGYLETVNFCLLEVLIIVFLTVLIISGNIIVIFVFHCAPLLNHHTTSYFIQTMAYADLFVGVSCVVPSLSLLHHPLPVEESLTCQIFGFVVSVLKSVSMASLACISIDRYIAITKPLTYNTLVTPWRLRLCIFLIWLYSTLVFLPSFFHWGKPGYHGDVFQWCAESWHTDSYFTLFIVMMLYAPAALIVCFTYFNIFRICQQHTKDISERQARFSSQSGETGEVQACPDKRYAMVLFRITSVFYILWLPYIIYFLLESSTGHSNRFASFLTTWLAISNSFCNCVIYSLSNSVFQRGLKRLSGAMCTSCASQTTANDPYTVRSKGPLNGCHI

Chain of panel of 320 non-olfactory GPCRs (Homo sapiens, UniProt Q9HBW0) (Q9HBW0 whole entry): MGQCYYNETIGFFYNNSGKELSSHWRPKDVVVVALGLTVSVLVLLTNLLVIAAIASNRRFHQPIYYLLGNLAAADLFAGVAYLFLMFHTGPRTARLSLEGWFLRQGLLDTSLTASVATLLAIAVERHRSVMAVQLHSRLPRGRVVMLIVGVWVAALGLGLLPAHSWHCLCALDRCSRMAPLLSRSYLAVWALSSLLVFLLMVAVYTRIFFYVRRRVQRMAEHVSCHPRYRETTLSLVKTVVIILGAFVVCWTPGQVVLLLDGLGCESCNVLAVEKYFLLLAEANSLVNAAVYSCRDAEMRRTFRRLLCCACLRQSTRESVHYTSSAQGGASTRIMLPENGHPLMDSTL
Chain of panel of 320 non-olfactory GPCRs (Homo sapiens, UniProt Q9HBW9) (Q9HBW9 20-690): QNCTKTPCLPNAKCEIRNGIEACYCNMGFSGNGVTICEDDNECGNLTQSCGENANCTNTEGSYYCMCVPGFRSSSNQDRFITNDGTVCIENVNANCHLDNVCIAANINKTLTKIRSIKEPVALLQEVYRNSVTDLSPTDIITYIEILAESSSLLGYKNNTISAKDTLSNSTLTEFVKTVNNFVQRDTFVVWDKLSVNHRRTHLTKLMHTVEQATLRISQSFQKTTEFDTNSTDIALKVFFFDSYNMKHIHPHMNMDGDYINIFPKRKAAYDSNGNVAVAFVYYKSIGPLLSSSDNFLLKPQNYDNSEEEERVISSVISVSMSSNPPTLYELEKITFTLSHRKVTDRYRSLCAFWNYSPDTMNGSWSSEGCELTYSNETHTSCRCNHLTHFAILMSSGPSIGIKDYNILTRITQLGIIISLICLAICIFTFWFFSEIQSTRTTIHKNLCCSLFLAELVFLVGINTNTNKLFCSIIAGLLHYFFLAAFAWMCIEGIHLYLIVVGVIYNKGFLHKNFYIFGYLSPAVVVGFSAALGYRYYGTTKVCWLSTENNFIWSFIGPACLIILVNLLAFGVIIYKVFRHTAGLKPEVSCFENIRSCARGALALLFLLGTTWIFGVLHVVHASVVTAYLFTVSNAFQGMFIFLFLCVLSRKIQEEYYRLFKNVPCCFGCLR
Chain of panel of 320 non-olfactory GPCRs (Homo sapiens, UniProt Q99527) (Q99527 whole entry): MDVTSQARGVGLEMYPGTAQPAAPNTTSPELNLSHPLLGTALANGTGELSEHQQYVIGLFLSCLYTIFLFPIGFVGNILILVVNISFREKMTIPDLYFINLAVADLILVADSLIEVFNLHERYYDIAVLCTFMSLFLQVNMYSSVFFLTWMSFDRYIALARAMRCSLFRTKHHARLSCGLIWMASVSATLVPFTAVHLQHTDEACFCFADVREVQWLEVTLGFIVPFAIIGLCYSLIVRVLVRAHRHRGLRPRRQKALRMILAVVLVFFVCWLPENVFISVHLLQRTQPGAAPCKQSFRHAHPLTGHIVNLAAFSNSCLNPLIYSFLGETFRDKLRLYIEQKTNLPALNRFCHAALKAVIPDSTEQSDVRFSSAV
Chain of panel of 320 non-olfactory GPCRs (Homo sapiens, UniProt Q86Y34) (Q86Y34 21-549): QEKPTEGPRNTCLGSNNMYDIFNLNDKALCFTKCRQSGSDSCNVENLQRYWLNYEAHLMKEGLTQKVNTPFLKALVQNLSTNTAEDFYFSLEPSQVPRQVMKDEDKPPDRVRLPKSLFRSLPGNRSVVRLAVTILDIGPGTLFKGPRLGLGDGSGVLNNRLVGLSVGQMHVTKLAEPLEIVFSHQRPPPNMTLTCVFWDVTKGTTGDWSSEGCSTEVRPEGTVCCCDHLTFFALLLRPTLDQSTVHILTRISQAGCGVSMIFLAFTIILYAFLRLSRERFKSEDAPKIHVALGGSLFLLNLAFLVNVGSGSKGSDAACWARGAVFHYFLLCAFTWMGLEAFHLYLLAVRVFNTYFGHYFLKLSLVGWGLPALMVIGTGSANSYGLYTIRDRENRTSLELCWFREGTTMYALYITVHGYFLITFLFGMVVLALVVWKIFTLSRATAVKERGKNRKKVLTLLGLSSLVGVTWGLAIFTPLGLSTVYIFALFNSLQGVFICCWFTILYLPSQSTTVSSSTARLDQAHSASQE
Chain of panel of 320 non-olfactory GPCRs (Homo sapiens, UniProt P08173) (P08173 whole entry): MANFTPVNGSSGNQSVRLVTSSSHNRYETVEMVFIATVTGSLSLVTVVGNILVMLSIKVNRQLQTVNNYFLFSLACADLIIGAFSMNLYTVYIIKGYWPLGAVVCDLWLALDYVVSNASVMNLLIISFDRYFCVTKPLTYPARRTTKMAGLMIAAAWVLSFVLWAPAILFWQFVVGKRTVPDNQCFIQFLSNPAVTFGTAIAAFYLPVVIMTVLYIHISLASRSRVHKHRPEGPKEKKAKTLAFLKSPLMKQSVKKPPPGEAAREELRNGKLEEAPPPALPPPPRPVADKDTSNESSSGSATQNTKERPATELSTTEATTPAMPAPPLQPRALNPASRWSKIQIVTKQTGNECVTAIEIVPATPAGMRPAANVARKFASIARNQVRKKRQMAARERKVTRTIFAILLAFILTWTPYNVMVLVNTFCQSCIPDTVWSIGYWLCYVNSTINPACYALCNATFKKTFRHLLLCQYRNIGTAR
Chain of panel of 320 non-olfactory GPCRs (Homo sapiens, UniProt P25106) (P25106 whole entry): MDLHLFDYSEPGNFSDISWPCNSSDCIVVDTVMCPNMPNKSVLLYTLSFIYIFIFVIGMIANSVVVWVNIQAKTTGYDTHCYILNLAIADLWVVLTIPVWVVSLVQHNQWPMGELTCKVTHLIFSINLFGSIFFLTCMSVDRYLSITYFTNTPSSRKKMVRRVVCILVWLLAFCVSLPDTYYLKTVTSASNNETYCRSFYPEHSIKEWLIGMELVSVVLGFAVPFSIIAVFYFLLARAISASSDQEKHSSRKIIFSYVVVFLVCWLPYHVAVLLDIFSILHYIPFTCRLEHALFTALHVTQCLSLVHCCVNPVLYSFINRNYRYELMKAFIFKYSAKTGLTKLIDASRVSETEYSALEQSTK
Chain of AmpC β-lactamase (P00811 20-377): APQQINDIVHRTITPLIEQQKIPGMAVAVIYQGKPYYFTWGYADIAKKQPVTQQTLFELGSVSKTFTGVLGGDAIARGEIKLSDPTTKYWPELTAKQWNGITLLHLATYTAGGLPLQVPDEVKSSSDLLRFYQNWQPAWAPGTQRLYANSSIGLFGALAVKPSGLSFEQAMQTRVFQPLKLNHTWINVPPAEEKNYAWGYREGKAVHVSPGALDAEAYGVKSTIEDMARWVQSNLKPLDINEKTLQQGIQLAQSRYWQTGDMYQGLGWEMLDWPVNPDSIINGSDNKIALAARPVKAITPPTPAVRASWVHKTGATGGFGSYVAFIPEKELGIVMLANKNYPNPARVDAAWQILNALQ
Chain of panel of 320 non-olfactory GPCRs (Homo sapiens, UniProt Q8TDV2) (Q8TDV2 whole entry): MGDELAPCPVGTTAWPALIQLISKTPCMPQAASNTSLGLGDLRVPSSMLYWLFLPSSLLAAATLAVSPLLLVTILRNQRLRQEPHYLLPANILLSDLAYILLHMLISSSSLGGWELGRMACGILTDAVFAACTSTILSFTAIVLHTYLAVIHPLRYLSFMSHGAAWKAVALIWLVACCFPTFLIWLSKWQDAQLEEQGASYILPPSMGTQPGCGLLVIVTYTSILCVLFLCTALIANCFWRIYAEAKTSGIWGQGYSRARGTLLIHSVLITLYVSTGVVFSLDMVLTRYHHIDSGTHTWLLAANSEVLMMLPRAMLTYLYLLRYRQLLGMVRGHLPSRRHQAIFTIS
Chain of panel of 320 non-olfactory GPCRs (Homo sapiens, UniProt Q6NV75) (Q6NV75 whole entry): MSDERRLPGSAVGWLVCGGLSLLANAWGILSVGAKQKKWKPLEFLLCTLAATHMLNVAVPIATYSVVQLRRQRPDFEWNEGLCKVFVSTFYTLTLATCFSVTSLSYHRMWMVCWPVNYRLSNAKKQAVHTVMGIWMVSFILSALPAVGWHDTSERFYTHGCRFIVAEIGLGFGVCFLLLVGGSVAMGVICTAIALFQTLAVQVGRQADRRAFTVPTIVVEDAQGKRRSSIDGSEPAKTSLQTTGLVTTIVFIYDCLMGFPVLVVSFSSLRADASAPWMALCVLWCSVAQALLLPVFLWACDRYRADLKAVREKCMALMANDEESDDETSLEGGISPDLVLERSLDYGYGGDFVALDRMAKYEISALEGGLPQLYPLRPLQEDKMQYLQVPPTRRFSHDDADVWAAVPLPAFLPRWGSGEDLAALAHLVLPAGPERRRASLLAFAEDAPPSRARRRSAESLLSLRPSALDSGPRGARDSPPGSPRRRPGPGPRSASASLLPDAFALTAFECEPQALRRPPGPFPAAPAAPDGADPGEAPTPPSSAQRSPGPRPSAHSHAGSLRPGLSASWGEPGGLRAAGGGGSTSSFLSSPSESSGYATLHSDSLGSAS
Chain of panel of 320 non-olfactory GPCRs (Homo sapiens, UniProt Q9NQS5) (Q9NQS5 whole entry): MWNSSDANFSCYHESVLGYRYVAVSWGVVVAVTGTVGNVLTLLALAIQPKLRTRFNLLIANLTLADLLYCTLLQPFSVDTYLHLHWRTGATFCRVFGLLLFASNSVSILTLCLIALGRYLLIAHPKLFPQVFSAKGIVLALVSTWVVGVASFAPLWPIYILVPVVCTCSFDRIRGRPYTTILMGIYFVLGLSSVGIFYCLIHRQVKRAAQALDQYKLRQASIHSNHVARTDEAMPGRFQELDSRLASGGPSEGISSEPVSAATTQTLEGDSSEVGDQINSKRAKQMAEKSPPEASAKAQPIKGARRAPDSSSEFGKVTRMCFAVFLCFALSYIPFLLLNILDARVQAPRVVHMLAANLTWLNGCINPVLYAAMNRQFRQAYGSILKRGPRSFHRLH

COC(=O)[C@@H]1[C@@H]2CCC[C@@H]2CN1C(=O)c1cc(C)n(-c2cccc(Cl)c2)n1 (racemic) [‘10010]
Tango ß-arrestin recruitment Emax [1]: 18% [17 – 19]
Tango ß-arrestin recruitment pEC50 [1]: 6.3 [6.2 – 6.3]
EC50 [1]: 556 nM

Cc1c(C(=O)OCC2CSc3ccccc3O2)cnn1Cc1ccccc1 (stereo not shown) [‘7800]
DLS scattering intensity ([2]; uM] 0): 1640000 and 1120000 and 1230000
DLS scattering intensity ([2]; uM] 1): 22000000 and 23800000 and 19200000
DLS scattering intensity ([2]; uM] 1.49996): 97300000 and 53900000 and 120000000
DLS scattering intensity ([2]; uM] 2): 210000000 and 155600000 and 163000000
DLS scattering intensity ([2]; uM] -0.500011): 631259 and 1270000 and 2510000
DLS scattering intensity ([2]; uM] -1): 884292 and 807566 and 1180000

Cn1nc(-c2nnc(C(C)(C)Oc3ccc(Cl)cc3)o2)c2ccccc2c1=O [‘0450]
DLS scattering intensity ([2]; uM] 0): 721249 and 1482870 and 678793
DLS scattering intensity ([2]; uM] 0.5): 820738 and 723783 and 889231
DLS scattering intensity ([2]; uM] 1): 2818066 and 935392 and 954008
DLS scattering intensity ([2]; uM] 1.49996): 37596765 and 31006318 and 24739178
DLS scattering intensity ([2]; uM] 2): 93917555 and 151664189 and 85385693
DLS scattering intensity ([2]; uM] -0.500011): 759174 and 1269323 and 983915
DLS scattering intensity ([2]; uM] -1): 623247 and 1064137 and 868483
DLS scattering intensity ([2]; uM] -1.5): 703949 and 596678 and 546381
MDH activity (DMSO = 100), replicate means [3]: 124.427 and 98.8422 and 101.682
AMPC activity (DMSO = 100), replicate means [4]: 142.819 and 64.3814 and 173.064

COC(=O)[C@@H]1[C@@H]2CCC[C@@H]2CN1C(=O)c1cc(C)n(-c2cccc(C(F)(F)F)c2)n1 [‘6439]
Tango ß-arrestin recruitment Emax [1]: 14% [13 – 15]
Tango ß-arrestin recruitment pEC50 [1]: 6.5 [6.4 – 6.6]
EC50 [1]: 338 nM

COC(=O)C(NC(=O)c1cc(C)n(-c2cccc(C(F)(F)F)c2)n1)c1cccs1 (stereo not shown) [‘60154]
Emax [1]: 21%
Tango ß-arrestin recruitment pEC50 [1]: 5.5 [5.4 – 5.6]
EC50 [1]: 3340 nM

COC(=O)[C@@](C)(NC(=O)c1cc(C)n(-c2cccc(C(F)(F)F)c2)n1)c1cccs1 [‘1350]
Fold of Basal RLU [5]: 0.8 fold and 0.7 fold and 1 fold and 0.9 fold
Fold of Basal RLU [6]: 1.1 fold and 1 fold
Fold of Basal RLU [7]: 1.2 and 0.6 and 0.9
Fold of Basal RLU [8]: 2.1 and 1.2 and 1.1
Fold of Basal RLU [9]: 1.2 fold and 1 fold and 0.8 fold
Fold of Basal RLU [10]: 0.8 and 0.9
Fold of Basal RLU [11]: 1.2 fold and 1.1 fold and 1 fold
Fold of Basal RLU [12]: 0.5 and 0.4 and 0.6
Fold of Basal RLU [13]: 1 and 1.1 and 0.6 and 0.8
Fold of Basal RLU [14]: 1.2 fold and 1.7 fold and 1.6 fold and 2.1 fold
Fold of Basal RLU [15]: 1.2 and 1.1 and 0.9
Fold of Basal RLU [16]: 0.8 fold and 1.2 fold
Fold of Basal RLU [17]: 0.7 and 0.8 and 1.1 and 0.6
Fold of Basal RLU [18]: 1 fold and 1.1 fold
Fold of Basal RLU [19]: 1 fold and 0.8 fold and 0.6 fold and 0.9 fold
Fold of Basal RLU [20]: 1.1 fold and 1 fold and 1.6 fold and 2 fold
Fold of Basal RLU [21]: 1 fold and 1.1 fold and 1.2 fold and 1.4 fold
Fold of Basal RLU [22]: 0.4 and 0.7 and 0.6
Fold of Basal RLU [23]: 1.3 fold and 1.6 fold and 2.3 fold and 1.8 fold
Fold of Basal RLU [24]: 1 and 0.8 and 1.3

COC(=O)C(NC(=O)c1cc(C)n(-c2cccc(F)c2)n1)c1cccs1 (stereo not shown) [‘51486]
DLS scattering intensity ([2]; uM] 0): 759657 and 686584 and 965322
DLS scattering intensity ([2]; uM] 0.5): 1020197 and 797976 and 985220
DLS scattering intensity ([2]; uM] 1): 599581 and 807564 and 813072
DLS scattering intensity ([2]; uM] 1.49996): 1081636 and 666504 and 646696
DLS scattering intensity ([2]; uM] 2): 2657372 and 4460546 and 3577303
DLS scattering intensity ([2]; uM] -0.500011): 732851 and 712729 and 950123
DLS scattering intensity ([2]; uM] -1): 747604 and 1271629 and 624256
DLS scattering intensity ([2]; uM] -1.5): 774618 and 1013605 and 787428
MDH activity (DMSO = 100), replicate means [3]: 74.7583 and 87.0115 and 96.3724
AMPC activity (DMSO = 100), replicate means [4]: 133.645 and 104.886 and 117.294

COC(=O)C(C)(NC(=O)c1cc(C)n(-c2cccc(C(F)(F)F)c2)n1)c1cccs1 (stereo not shown) [‘4042]
Emax [1]: 28%
Tango ß-arrestin recruitment pEC50 [1]: 7.5 [7.2 – 7.7]
EC50 [1]: 33.9 nM

Cc1nc(CC2CC2)oc1-c1nc(Cc2cc3c(cc2Br)OCO3)no1 [‘7019]
DLS scattering intensity ([2]; uM] 0): 2130000 and 1970000 and 1380000
DLS scattering intensity ([2]; uM] 1): 1540000 and 2950000 and 1930000
DLS scattering intensity ([2]; uM] 1.49996): 46500000 and 37100000 and 47300000
DLS scattering intensity ([2]; uM] 2): 1480000* and 177000000 and 144000000
DLS scattering intensity ([2]; uM] -0.500011): 1270000 and 1420000 and 400669
DLS scattering intensity ([2]; uM] -1): 2530000 and 1820000 and 2230000
MDH inhibition ([3]; uM 0): 0
MDH inhibition ([3]; uM 1): 0
MDH inhibition ([3]; uM 1.49996): 13.7
MDH inhibition ([3]; uM 2): 16.9
MDH inhibition ([3]; uM -0.500011): 0
MDH inhibition ([3]; uM -1): 0
AmpC inhibition ([4]; uM 0): 0
AmpC inhibition ([4]; uM 1): 0
AmpC inhibition ([4]; uM 1.49996): 27.6
AmpC inhibition ([4]; uM 2): 55.1
AmpC inhibition ([4]; uM -0.500011): 0
AmpC inhibition ([4]; uM -1): 0
